According to patent US20250082674A1, “METHODS OF TREATING COPPER METABOLISM-ASSOCIATED DISEASES OR DISORDERS” (priority 2021, published 2025):
Read-outs that look alike come from different tables or passages of the source.

System: patients with Wilson disease (WD)
Text: The UWDRS Part II total score results for this pooled population are presented in Table 16 and FIG. 13 and the UWDRS Part III total score results are in Table 17 and FIG. 14. The UWDRS Part III Functional Subscale (comprised of the items arising from a chair, gait, handwriting and speech) results for this pooled population are presented in Table 18 and FIG. 15.

## Bis-choline tetrathiomolybdate [BC-TTM]
BC-TTM exposure 60 wks
  UWDRS Part III Functional Subscale (Range 0-10) LSM change from baseline: −0.355
  UWDRS Part III Functional Subscale (Range 0-10) Mean change from baseline: −0.422
BC-TTM exposure 72 wks
  UWDRS Part III (Range 0-175) LSM change from baseline: −4.43
  UWDRS Part III (Range 0-175) Mean change from baseline: −4.93
  UWDRS Part III Functional Subscale (Range 0-10) LSM change from baseline: −0.399
  UWDRS Part III Functional Subscale (Range 0-10) Mean change from baseline: −0.494
BC-TTM exposure 96 wks
  UWDRS Part III (Range 0-175) LSM change from baseline: −6.32
  UWDRS Part III (Range 0-175) Mean change from baseline: −7.95
  UWDRS Part III Functional Subscale (Range 0-10) LSM change from baseline: −0.607
  UWDRS Part III Functional Subscale (Range 0-10) Mean change from baseline: −0.900
BC-TTM exposure 120 wks
  UWDRS Part III (Range 0-175) LSM change from baseline: −6.69
  UWDRS Part III (Range 0-175) Mean change from baseline: −8.92
  UWDRS Part III Functional Subscale (Range 0-10) LSM change from baseline: −0.660
  UWDRS Part III Functional Subscale (Range 0-10) Mean change from baseline: −0.946
BC-TTM exposure 144 wks
  UWDRS Part III (Range 0-175) LSM change from baseline: −7.70
  UWDRS Part III (Range 0-175) Mean change from baseline: −9.78
  UWDRS Part III Functional Subscale (Range 0-10) LSM change from baseline: −0.803
  UWDRS Part III Functional Subscale (Range 0-10) Mean change from baseline: −1.042
BC-TTM exposure 168 wks
  UWDRS Part III (Range 0-175) LSM change from baseline: −9.48
  UWDRS Part III (Range 0-175) Mean change from baseline: −18.08
  UWDRS Part III Functional Subscale (Range 0-10) LSM change from baseline: −0.903
  UWDRS Part III Functional Subscale (Range 0-10) Mean change from baseline: −1.841
BC-TTM exposure 192 wks
  UWDRS Part III (Range 0-175) LSM change from baseline: −6.13
  UWDRS Part III (Range 0-175) Mean change from baseline: −12.65
  UWDRS Part III Functional Subscale (Range 0-10) LSM change from baseline: −0.437
  UWDRS Part III Functional Subscale (Range 0-10) Mean change from baseline: −1.250
BC-TTM exposure 216 wks
  UWDRS Part III (Range 0-175) LSM change from baseline: −6.52
  UWDRS Part III (Range 0-175) Mean change from baseline: −16.17
  UWDRS Part III Functional Subscale (Range 0-10) LSM change from baseline: −0.430
  UWDRS Part III Functional Subscale (Range 0-10) Mean change from baseline: −1.519
BC-TTM exposure 240 wks
  UWDRS Part III (Range 0-175) LSM change from baseline: −6.49
  UWDRS Part III (Range 0-175) Mean change from baseline: 11.48
  UWDRS Part III Functional Subscale (Range 0-10) LSM change from baseline: −0.607
  UWDRS Part III Functional Subscale (Range 0-10) Mean change from baseline: −0.898
BC-TTM exposure 264 wks
  UWDRS Part III (Range 0-175) LSM change from baseline: −9.57
  UWDRS Part III (Range 0-175) Mean change from baseline: −14.00
  UWDRS Part III Functional Subscale (Range 0-10) LSM change from baseline: −0.818
  UWDRS Part III Functional Subscale (Range 0-10) Mean change from baseline: −0.995
Baseline, observed value
  UWDRS Part III (Range 0-175) Mean: 15.43
  UWDRS Part III Functional Subscale (Range 0-10) Mean: 1.590
Pooled Studies 301 and 201
  UWDRS Part II, Part III and Part III Functional Subscale scores over up to 5 years: continuing improvement
Pooled Studies 301 and 201, BC-TTM exposure 4 weeks
  UWDRS Part II Score (Range 0-40), change from baseline, Mean (SD): −0.3 (2.28)
Pooled Studies 301 and 201, BC-TTM exposure 12 weeks
  UWDRS Part II Score (Range 0-40), change from baseline, Mean (SD): −0.4 (2.76)
Pooled Studies 301 and 201, BC-TTM exposure 24 weeks
  UWDRS Part II Score (Range 0-40), change from baseline, Mean (SD): −0.4 (3.42)
Pooled Studies 301 and 201, BC-TTM exposure 36 weeks
  UWDRS Part II Score (Range 0-40), change from baseline, Mean (SD): −0.9 (4.11)
Pooled Studies 301 and 201, BC-TTM exposure 48 weeks
  UWDRS Part II Score (Range 0-40), change from baseline, Mean (SD): −1.2 (4.24)
Pooled Studies 301 and 201, BC-TTM exposure 60 weeks
  UWDRS Part II Score (Range 0-40), change from baseline, Mean (SD): −1.4 (4.35)
Pooled Studies 301 and 201, BC-TTM exposure 72 weeks
  UWDRS Part II Score (Range 0-40), change from baseline, Mean (SD): −1.9 (4.74)
Pooled Studies 301 and 201, BC-TTM exposure 96 weeks
  UWDRS Part II Score (Range 0-40), change from baseline, Mean (SD): −2.5 (6.11)
Pooled Studies 301 and 201, BC-TTM exposure 120 weeks
  UWDRS Part II Score (Range 0-40), change from baseline, Mean (SD): −3.1 (6.82)
Pooled Studies 301 and 201, BC-TTM exposure 144 weeks
  UWDRS Part II Score (Range 0-40), change from baseline, Mean (SD): −3.3 (6.61)
Pooled Studies 301 and 201, BC-TTM exposure 168 weeks
  UWDRS Part II Score (Range 0-40), change from baseline, Mean (SD): −6.2 (10.17)
Pooled Studies 301 and 201, BC-TTM exposure 192 weeks
  UWDRS Part II Score (Range 0-40), change from baseline, Mean (SD): −5.9 (9.88)
Pooled Studies 301 and 201, BC-TTM exposure 216 weeks
  UWDRS Part II Score (Range 0-40), change from baseline, Mean (SD): −7.1 (10.90)
Pooled Studies 301 and 201, BC-TTM exposure 240 weeks
  UWDRS Part II Score (Range 0-40), change from baseline, Mean (SD): −6.6 (10.09)
Pooled Studies 301 and 201, BC-TTM exposure 264 weeks
  UWDRS Part II Score (Range 0-40), change from baseline, Mean (SD): −6.2 (9.02)
